ChEMBL document CHEMBL1201862, “PubChem BioAssay data set” (2004)
Values joined by “and” are separate entries in the source; they are usually repeats but may differ in a detail not shown here. Identical values can stand only once.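 How tested: cells in 96-well plates exposed to compound for 48 hours at five concentrations. At the GI50, growth is halved.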 Active and inactive are the calls of the source. No stated cut-off is given here; in the data, active = GI50 up to about 1.1 µM and inactive = higher.

Legend:
Experiment in all cases: growth of human tumour cells (NCI), 48 h
BT-549 = tested on: BT-549
SR = tested on: SR
OVCAR-3 = tested on: OVCAR-3
SF-539 = tested on: SF-539
MDA-MB-231 = tested on: MDA-MB-231
HOP-62 = tested on: HOP-62
NCI-H226 = tested on: NCI-H226
NCI-H460 = tested on: NCI-H460
SK-MEL-5 = tested on: SK-MEL-5
CAKI-1 = tested on: CAKI-1
ACHN = tested on: ACHN
A549 = tested on: A549
SK-OV-3 = tested on: SK-OV-3
MDA-N = tested on: MDA-N
NCI/ADR-RES = tested on: NCI/ADR-RES
UACC-62 = tested on: UACC-62
MDA-MB-435 = tested on: MDA-MB-435
COLO 205 = tested on: COLO 205
UACC-257 = tested on: UACC-257
SW-620 = tested on: SW-620
TK-10 = tested on: TK-10
HT-29 = tested on: HT-29
SNB-19 = tested on: SNB-19
SN12C = tested on: SN12C
K562 = tested on: K562
HCC 2998 = tested on: HCC 2998
SF-268 = tested on: SF-268
RPMI-8226 = tested on: RPMI-8226
MCF7 = tested on: MCF7
KM12 = tested on: KM12
EKVX = tested on: EKVX
IGROV-1 = tested on: IGROV-1
OVCAR-8 = tested on: OVCAR-8
U-251 = tested on: U-251
PC-3 = tested on: PC-3
RXF 393 = tested on: RXF 393
SK-MEL-2 = tested on: SK-MEL-2
SK-MEL-28 = tested on: SK-MEL-28
DU-145 = tested on: DU-145
M14 = tested on: M14
OVCAR-5 = tested on: OVCAR-5
Malme-3M = tested on: Malme-3M
786-0 = tested on: 786-0
Hs-578T = tested on: Hs-578T
MOLT-4 = tested on: MOLT-4
HCT-15 = tested on: HCT-15
NCI-H23 = tested on: NCI-H23
UO-31 = tested on: UO-31
NCI-H522 = tested on: NCI-H522
HCT-116 = tested on: HCT-116
SF-295 = tested on: SF-295

C#CC1(O)C(COP(=O)(O)OC(COCCCCCCCCCCCCCCCCCC)COP(=O)(O)OCC2OC(n3cc(F)c(=O)[nH]c3=O)CC2O)OC(n2ccc(N)nc2=O)C1O (stereo not drawn)
GI50 (BT-549): 752 nM (active) and 466 nM (active) | GI50 (SR): < 13.8 nM (active) and < 15.7 nM (active) | GI50 (OVCAR-3): 1.04 µM (active) and 1.93 µM (inactive) | GI50 (SF-539): < 21.3 nM (active) and < 23.3 nM (active) | GI50 (MDA-MB-231): 1.1 µM (active) and 731 nM (active) | GI50 (HOP-62): 434 nM (active) and 399 nM (active) | GI50 (NCI-H226): 471 nM (active) and 299 nM (active) | GI50 (NCI-H460): < 21.3 nM (active) and < 13.9 nM (active) | GI50 (SK-MEL-5): 621 nM (active) and 467 nM (active) | GI50 (CAKI-1): 48.5 nM (active) and 54.8 nM (active) | GI50 (ACHN): < 36.1 nM (active) and 59.2 nM (active) | GI50 (A549): < 28.8 nM (active) and 29.7 nM (active) | GI50 (SK-OV-3): 1.32 µM (inactive) and 2.43 µM (inactive) | GI50 (MDA-N): 418 nM (active) and 293 nM (active) | GI50 (NCI/ADR-RES): 209 nM (active) and 265 nM (active) | GI50 (UACC-62): 546 nM (active) and 277 nM (active) | GI50 (MDA-MB-435): 514 nM (active) and 376 nM (active) | GI50 (COLO 205): 244 nM (active) and 211 nM (active) | GI50 (UACC-257): 1.15 µM (inactive) and 1.92 µM (inactive) | GI50 (SW-620): 114 nM (active) and 91.8 nM (active) | GI50 (TK-10): 200 nM (active) and 124 nM (active) | GI50 (HT-29): 361 nM (active) and 313 nM (active) | GI50 (SNB-19): 152 nM (active) and 277 nM (active) | GI50 (SN12C): 0.0818 µM (active) | GI50 (K562): < 31.3 nM (active) and 27.5 nM (active) | GI50 (HCC 2998): 1.26 µM (inactive) | GI50 (SF-268): < 27.2 nM (active) and 48.8 nM (active) | GI50 (RPMI-8226): 26.2 nM (active) and < 16.3 nM (active) | GI50 (MCF7): < 24.7 nM (active) and < 18.3 nM (active) | GI50 (KM12): 454 nM (active) and 252 nM (active)

CC(C)(C)OC(=O)NNC(=O)C1Cc2ccccc2OC1=O (stereo not drawn)
GI50 (BT-549): > 100 µM (inactive) | GI50 (SR): > 100 µM (inactive) | GI50 (EKVX): > 100 µM (inactive) | GI50 (OVCAR-3): > 100 µM (inactive) | GI50 (SF-539): > 100 µM (inactive) | GI50 (IGROV-1): > 100 µM (inactive) | GI50 (HOP-62): > 100 µM (inactive) | GI50 (NCI-H226): > 100 µM (inactive) | GI50 (NCI-H460): > 100 µM (inactive) | GI50 (SK-MEL-5): > 100 µM (inactive) | GI50 (OVCAR-8): > 100 µM (inactive) | GI50 (CAKI-1): > 100 µM (inactive) | GI50 (U-251): > 100 µM (inactive) | GI50 (PC-3): > 100 µM (inactive) | GI50 (ACHN): > 100 µM (inactive) | GI50 (A549): > 100 µM (inactive) | GI50 (RXF 393): > 100 µM (inactive) | GI50 (SK-MEL-2): > 100 µM (inactive) | GI50 (SK-MEL-28): > 100 µM (inactive) | GI50 (SK-OV-3): > 100 µM (inactive) | GI50 (DU-145): > 100 µM (inactive) | GI50 (MDA-N): > 100 µM (inactive) | GI50 (M14): > 100 µM (inactive) | GI50 (OVCAR-5): > 100 µM (inactive) | GI50 (NCI/ADR-RES): > 100 µM (inactive) | GI50 (Malme-3M): > 100 µM (inactive) | GI50 (UACC-62): > 100 µM (inactive) | GI50 (786-0): > 100 µM (inactive) | GI50 (MDA-MB-435): > 100 µM (inactive) | GI50 (Hs-578T): > 100 µM (inactive) | GI50 (MOLT-4): > 100 µM (inactive) | GI50 (UACC-257): > 100 µM (inactive) | GI50 (SW-620): > 100 µM (inactive) | GI50 (TK-10): > 100 µM (inactive) | GI50 (HT-29): > 100 µM (inactive) | GI50 (SNB-19): > 100 µM (inactive) | GI50 (HCT-15): > 100 µM | GI50 (NCI-H23): > 100 µM (inactive) | GI50 (SN12C): > 100 µM (inactive) | GI50 (K562): > 100 µM (inactive) | GI50 (HCC 2998): > 100 µM (inactive) | GI50 (SF-268): > 100 µM (inactive) | GI50 (RPMI-8226): > 100 µM (inactive) | GI50 (UO-31): > 100 µM (inactive) | GI50 (KM12): > 100 µM (inactive) | GI50 (NCI-H522): > 100 µM (inactive) | GI50 (HCT-116): > 100 µM (inactive) | GI50 (SF-295): > 100 µM (inactive)
